US7592422B2, “Modified plasminogen activator inhibitor type-1 and methods based thereon” (Medical College of Ohio, priority 2002, dated 2009)

Tests used:
urokinase LMWt, Abbott = urokinase LMWt, Abbott (Homo sapiens, UniProt P00749); conditions: 0.05 M Tris pH 8.8, 37° C., substrate 0.5 mM, urokinase at 1000 u/mL; cited from earlier work
urokinase HMWt, Choay = urokinase HMWt, Choay (Homo sapiens, UniProt P00749); conditions: 0.05 M Tris pH 8.8, 37° C., substrate 0.5 mM, urokinase at 1000 u/mL; cited from earlier work
[1] = test system: chicken chorioallantoic membrane (angiogenesis in chick embryos); assay: Chicken chorioallantoic membrane (CAM) assay; format: in vivo
Procedure: The one-day-old fertilized eggs were incubated for three days in the water-jacketed incubator (38° C., 85% humidity). The eggs were cracked and the chick embryos with intact yolks were placed in plastic Petri dishes containing 10 ml of RPMI-1640 medium (38° C., 85% humidity, 3% of CO2). After 3 days of incubation, the methylcellulose disk containing inhibitor was implanted on the CAMs of the individual embryos. After 48 h of incubation, CAM of individual embryo was analyzed for formation of avascular zones and photographed. The angiostatic effect was determined as a percentage of the area of blood vessels under the methylcellulose disks (3-5 eggs for each concentration) in relation to the non-treated areas. The area below the dialysis bag and two non-treated areas were scanned and saved on computer disk as tif files. Color images were converted into black/white images, contrast was enhanced, and images were saved as 16-bitmap files using Paint Software (Microsoft Corporation, Redmond, Va.). Black/white images were converted into false color (rainbow striped) images using Transform2 Software (Fortner, Sterling, Va.). […] This method provides some quantification of angiogenesis.

Compound: Cbo-L-(γ)-Glu (α-t-BuO)-Gly-Arg-pNA.2AcOH [No. 244]
- Vmax (urokinase LMWt, Abbott): 0.53 μM mm-^1
- κm (urokinase LMWt, Abbott): 80 µM
- Vmax (urokinase HMWt, Choay): 0.54 μM mm-^1
- κm (urokinase HMWt, Choay): 30 µM

Compound: N=C(N)NC(=O)c1nc(Cl)c(N)nc1N [amiloride]
- large avascular zones outside of areas covered by methylcellulose disk containing the inhibitor ([1]; 48 h): The effect was observed

Compound: O=C(O[C@@H]1Cc2c(O)cc(O)cc2O[C@@H]1c1cc(O)c(O)c(O)c1)c1cc(O)c(O)c(O)c1 [EGCG, epigallocatechin gallate]
- colour change of methylcellulose disks (sign of probable oxidation) ([1]; in methylcellulose disk on CAM): the methylcellulose disks quickly change color

Compound: VEGF
- vessel formation, positive control disk ([1]; methylcellulose disk containing VEGF): dense areas of newly formed vessels were developed
